According to patent US20240366589A1, “NHE3-BINDING COMPOUNDS AND METHODS FOR INHIBITING PHOSPHATE TRANSPORT” (Ardelyx, Inc., priority 2013, published 2024):

Key:
[1] = biological target: T1, Rat NHE3 (Rattus norvegicus, UniProt P26433); assay: Cell-based NHE3 activity under prompt conditions (OK cells, BCECF pH recovery), rat NHE3; conditions: prompt conditions
T1 construct: expressed in transfected cells; host or cells: Opossum kidney (OK) cells (ATCC), electroporation
Outline: (§1)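 Cells (OK line, electroporated with rat or human NHE3) are washed in NaCl-HEPES pH 7.4, then dye-loaded 30 min at room temperature with 5 μM BCECF-AM in NH4Cl buffer.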

[2] = biological target: T2, Human NHE3 (Homo sapiens, UniProt P48764); assay: Cell-based NHE3 activity under prompt conditions (OK cells, BCECF pH recovery), human NHE3; conditions: prompt conditions
T2 construct: expressed in transfected cells; host or cells: Opossum kidney (OK) cells (ATCC), electroporation
T2 sequence (P48764 26-834): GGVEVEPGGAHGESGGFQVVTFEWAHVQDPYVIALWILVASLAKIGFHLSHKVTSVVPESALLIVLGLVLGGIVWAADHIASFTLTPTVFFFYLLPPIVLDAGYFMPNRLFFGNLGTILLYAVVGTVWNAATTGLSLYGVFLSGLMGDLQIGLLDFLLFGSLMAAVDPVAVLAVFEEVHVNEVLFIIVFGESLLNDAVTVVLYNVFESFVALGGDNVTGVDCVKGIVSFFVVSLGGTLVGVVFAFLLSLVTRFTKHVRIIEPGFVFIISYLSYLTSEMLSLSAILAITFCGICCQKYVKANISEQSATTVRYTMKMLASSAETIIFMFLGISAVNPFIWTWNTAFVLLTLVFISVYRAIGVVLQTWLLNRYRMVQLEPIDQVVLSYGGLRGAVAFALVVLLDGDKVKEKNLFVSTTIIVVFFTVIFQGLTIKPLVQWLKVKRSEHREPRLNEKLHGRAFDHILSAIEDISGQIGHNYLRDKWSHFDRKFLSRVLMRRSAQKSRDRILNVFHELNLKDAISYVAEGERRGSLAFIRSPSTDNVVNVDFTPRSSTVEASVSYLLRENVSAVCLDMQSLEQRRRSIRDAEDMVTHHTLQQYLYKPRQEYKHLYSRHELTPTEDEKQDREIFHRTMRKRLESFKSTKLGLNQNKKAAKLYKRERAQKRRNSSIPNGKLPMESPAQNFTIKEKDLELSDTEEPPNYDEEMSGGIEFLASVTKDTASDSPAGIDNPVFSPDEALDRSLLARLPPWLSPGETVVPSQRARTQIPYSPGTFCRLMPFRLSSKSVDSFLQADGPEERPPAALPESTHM
Outline: as §1

[3] = system: absorption of sodium from the intestinal lumen; assay: Inhibition of intestinal sodium absorption: urinary sodium (uNa) 16 h after single oral dose in rats; assay type: in vivo, rat; conditions: oral gavage, 16 h post-dose
Outline: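 Eight-week-old Sprague-Dawley rats (n=6) given single oral gavage of compound or water vehicle in the late afternoon, then kept in metabolic cages with chow and water ad libitum. Urine collected over 16 h; sodium quantified by ion chromatography and expressed as % of vehicle mean, compared by one-way ANOVA with Dunnett's test.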

[4] = system: absorption of sodium from the intestinal lumen; assay: Fecal form score (FFS) 16 h after oral dose in rats; assay type: in vivo, rat; conditions: oral gavage, 16 h post-dose, scale 1-5
Outline: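 Eight-week-old Sprague-Dawley rats (n=6) dosed by oral gavage with compound or water vehicle between 4 and 5 PM, then housed in metabolic cages with food and water ad libitum. At 16 h, fecal form scored 1 (normal pellet) to 5 (liquid streams) by two observers; group mean reported.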

[5] = system: phosphorus and calcium levels in the urine of rats; assay: Urinary excretion of phosphate and calcium in rats (16 h overnight urine); assay type: in vivo, rat; conditions: rats, oral gavage, 16 h post-dose

T1 sequence (P26433 29-831): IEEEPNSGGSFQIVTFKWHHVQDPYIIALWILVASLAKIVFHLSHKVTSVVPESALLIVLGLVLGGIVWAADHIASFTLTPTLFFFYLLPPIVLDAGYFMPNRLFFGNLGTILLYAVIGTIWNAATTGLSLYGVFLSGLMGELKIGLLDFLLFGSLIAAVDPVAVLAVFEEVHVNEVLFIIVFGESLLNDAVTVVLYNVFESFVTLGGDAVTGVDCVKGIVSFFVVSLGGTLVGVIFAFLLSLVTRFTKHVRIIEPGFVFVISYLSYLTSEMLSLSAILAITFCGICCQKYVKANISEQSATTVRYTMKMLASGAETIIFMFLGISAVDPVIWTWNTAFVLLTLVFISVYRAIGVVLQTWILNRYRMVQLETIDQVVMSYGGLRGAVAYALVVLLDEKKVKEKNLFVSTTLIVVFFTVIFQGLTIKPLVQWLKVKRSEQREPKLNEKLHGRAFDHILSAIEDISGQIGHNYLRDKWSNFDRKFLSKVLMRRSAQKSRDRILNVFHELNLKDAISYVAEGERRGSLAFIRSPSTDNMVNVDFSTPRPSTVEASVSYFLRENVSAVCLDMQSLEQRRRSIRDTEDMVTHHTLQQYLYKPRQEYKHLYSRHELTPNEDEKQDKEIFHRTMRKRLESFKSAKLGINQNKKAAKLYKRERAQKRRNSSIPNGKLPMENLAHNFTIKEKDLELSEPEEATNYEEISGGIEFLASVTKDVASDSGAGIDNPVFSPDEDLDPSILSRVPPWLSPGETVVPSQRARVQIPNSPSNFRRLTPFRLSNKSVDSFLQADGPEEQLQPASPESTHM

SMILES: O=C(NCCOCCOCCNS(=O)(=O)c1ccc(O[C@H]2c3ccccc3C[C@@H]2N2CCCCC2)cc1)c1ccc(C(=O)NCCOCCOCCNS(=O)(=O)c2ccc(O[C@H]3c4ccccc4C[C@@H]3N3CCCCC3)cc2)cc1 [compound 100]
- Prompt Rat NHE3 pIC50 [1]: 8.10
- Prompt Human NHE3 pIC50 [2]: 8.30
- Urine Na % of control ([3]; dose 10 mg/kg): 57%
- Fecal Form Score average ([4]; dose 10 mg/kg): 1
- Urine P % of control ([5]; dose 10 mg/kg): 68%

SMILES: O=C(NCCOCCOCCNS(=O)(=O)c1ccc(O[C@H]2c3ccccc3C[C@@H]2N2CCCCC2)cc1)c1cccc(C(=O)NCCOCCOCCNS(=O)(=O)c2ccc(O[C@H]3c4ccccc4C[C@@H]3N3CCCCC3)cc2)c1 [compound 101]
- Prompt Rat NHE3 pIC50 [1]: <5.00
- Prompt Human NHE3 pIC50 [2]: 8.10
- Urine Na % of control ([3]; dose 10 mg/kg): 64%
- Fecal Form Score average ([4]; dose 10 mg/kg): 1
- Urine P % of control ([5]; dose 10 mg/kg): 81%

SMILES: CN1Cc2c(Cl)cc(Cl)cc2[C@H](c2cccc(S(=O)(=O)N(C)CCOCCOCCNC(=O)NCCCN(CCCNC(=O)NCCOCCOCCN(C)S(=O)(=O)c3cccc([C@@H]4CN(C)Cc5c(Cl)cc(Cl)cc54)c3)CCCNC(=O)NCCOCCOCCN(C)S(=O)(=O)c3cccc([C@@H]4CN(C)Cc5c(Cl)cc(Cl)cc54)c3)c2)C1 [compound 106]
- Prompt Rat NHE3 pIC50 [1]: 7.00
- Prompt Human NHE3 pIC50 [2]: 7.90
- Urine Na % of control ([3]; dose 1 mg/kg): 98%
- Urine Na % of control ([3]; dose 3 mg/kg): 76%
- Urine Na % of control ([3]; dose 10 mg/kg): 20%
- Fecal Form Score average ([4]; dose 1 mg/kg): 1
- Fecal Form Score average ([4]; dose 3 mg/kg): 2
- Fecal Form Score average ([4]; dose 10 mg/kg): 4
- Urine P % of control ([5]; dose 1 mg/kg): 124%
- Urine P % of control ([5]; dose 3 mg/kg): 39%
- Urine P % of control ([5]; dose 10 mg/kg): 64%

SMILES: CN1Cc2c(Cl)cc(Cl)cc2[C@H](c2cccc(S(=O)(=O)NCCOCCOCCNC(=O)N(C)CCCN(CCCN(C)C(=O)NCCOCCOCCNS(=O)(=O)c3cccc([C@@H]4CN(C)Cc5c(Cl)cc(Cl)cc54)c3)CCCN(C)C(=O)NCCOCCOCCNS(=O)(=O)c3cccc([C@@H]4CN(C)Cc5c(Cl)cc(Cl)cc54)c3)c2)C1 [compound 107]
- Prompt Rat NHE3 pIC50 [1]: 6.90
- Prompt Human NHE3 pIC50 [2]: 8.10
- Urine Na % of control ([3]; dose 1 mg/kg): 88%
- Urine Na % of control ([3]; dose 3 mg/kg): 55%
- Urine Na % of control ([3]; dose 10 mg/kg): 28%
- Fecal Form Score average ([4]; dose 1 mg/kg): 1
- Fecal Form Score average ([4]; dose 3 mg/kg): 1
- Fecal Form Score average ([4]; dose 10 mg/kg): 4
- Urine P % of control ([5]; dose 1 mg/kg): 106%
- Urine P % of control ([5]; dose 3 mg/kg): 66%
- Urine P % of control ([5]; dose 10 mg/kg): 59%

SMILES: CN1Cc2c(Cl)cc(Cl)cc2[C@H](c2cccc(S(=O)(=O)NCCOCCOCCNC(=O)NCCC[N+](C)(CCCNC(=O)NCCOCCOCCNS(=O)(=O)c3cccc([C@@H]4CN(C)Cc5c(Cl)cc(Cl)cc54)c3)CCCNC(=O)NCCOCCOCCNS(=O)(=O)c3cccc([C@@H]4CN(C)Cc5c(Cl)cc(Cl)cc54)c3)c2)C1 [compound 109]
- Prompt Rat NHE3 pIC50 [1]: 7.40
- Prompt Human NHE3 pIC50 [2]: 8.10
- Urine Na % of control ([3]; dose 1 mg/kg): 64%
- Urine Na % of control ([3]; dose 3 mg/kg): 52%
- Urine Na % of control ([3]; dose 10 mg/kg): 28%
- Fecal Form Score average ([4]; dose 1 mg/kg): 1
- Fecal Form Score average ([4]; dose 3 mg/kg): 2
- Fecal Form Score average ([4]; dose 10 mg/kg): 4
- Urine P % of control ([5]; dose 1 mg/kg): 65%
- Urine P % of control ([5]; dose 3 mg/kg): 51%
- Urine P % of control ([5]; dose 10 mg/kg): 52%

SMILES: CN1Cc2c(Cl)cc(Cl)cc2[C@H](c2cccc(S(=O)(=O)NCCOCCOCCNC(=O)CCC(CCC(=O)NCCOCCOCCNS(=O)(=O)c3cccc([C@@H]4CN(C)Cc5c(Cl)cc(Cl)cc54)c3)(CCC(=O)NCCOCCOCCNS(=O)(=O)c3cccc([C@@H]4CN(C)Cc5c(Cl)cc(Cl)cc54)c3)NCc3ccc(-c4ccc(Cl)cc4)cc3)c2)C1 [compound 113]
- Prompt Rat NHE3 pIC50 [1]: <5.00
- Prompt Human NHE3 pIC50 [2]: <5.00
- Urine Na % of control ([3]; dose 10 mg/kg): 64%
- Fecal Form Score average ([4]; dose 10 mg/kg): 1
- Urine P % of control ([5]; dose 10 mg/kg): 61%

SMILES: CN(C)[C@H]1Cc2ccccc2[C@@H]1Oc1ccc(S(=O)(=O)NCCOCCOCCNC(=O)NCCCCNC(=O)NCCOCCOCCNS(=O)(=O)c2ccc(O[C@H]3c4ccccc4C[C@@H]3N(C)C)cc2)cc1 [compound 115]
- Prompt Rat NHE3 pIC50 [1]: <5.00
- Prompt Human NHE3 pIC50 [2]: 8.55
- Urine Na % of control ([3]; dose 10 mg/kg): 69%
- Fecal Form Score average ([4]; dose 10 mg/kg): 1
- Urine P % of control ([5]; dose 10 mg/kg): 60%

SMILES: CN(C)[C@H]1Cc2ccc(Cl)cc2[C@@H]1Oc1ccc(S(=O)(=O)NCCOCCOCCNC(=O)NCCCCNC(=O)NCCOCCOCCNS(=O)(=O)c2ccc(O[C@H]3c4cc(Cl)ccc4C[C@@H]3N(C)C)cc2)cc1 [compound 116]
- Prompt Rat NHE3 pIC50 [1]: <5.00
- Prompt Human NHE3 pIC50 [2]: 8.30
- Urine Na % of control ([3]; dose 10 mg/kg): 84%
- Fecal Form Score average ([4]; dose 10 mg/kg): 1
- Urine P % of control ([5]; dose 10 mg/kg): 130%

SMILES: O=C(NCCOCCOCCOCCNS(=O)(=O)c1ccc(O[C@H]2c3ccccc3C[C@@H]2N2CCCCC2)cc1)c1ccc(C(=O)NCCOCCOCCOCCNS(=O)(=O)c2ccc(O[C@H]3c4ccccc4C[C@@H]3N3CCCCC3)cc2)cc1 [compound 117]
- Prompt Rat NHE3 pIC50 [1]: 7.50
- Prompt Human NHE3 pIC50 [2]: 8.20
- Urine Na % of control ([3]; dose 10 mg/kg): 77%
- Fecal Form Score average ([4]; dose 10 mg/kg): 1
- Urine P % of control ([5]; dose 10 mg/kg): 98%

SMILES: O=C(NCCOCCOCCOCCNS(=O)(=O)c1ccc(O[C@H]2c3ccccc3C[C@@H]2N2CCCCC2)cc1)c1cccc(C(=O)NCCOCCOCCOCCNS(=O)(=O)c2ccc(O[C@H]3c4ccccc4C[C@@H]3N3CCCCC3)cc2)c1 [compound 118]
- Prompt Rat NHE3 pIC50 [1]: 7.40
- Prompt Human NHE3 pIC50 [2]: 8.10
- Urine Na % of control ([3]; dose 10 mg/kg): 83%
- Fecal Form Score average ([4]; dose 10 mg/kg): 1
- Urine P % of control ([5]; dose 10 mg/kg): 131%

SMILES: CC(C)(C(=O)NCCOCCOCCOCCNS(=O)(=O)c1ccc(O[C@H]2c3ccccc3C[C@@H]2N2CCCCC2)cc1)C(=O)NCCOCCOCCOCCNS(=O)(=O)c1ccc(O[C@H]2c3ccccc3C[C@@H]2N2CCCCC2)cc1 [compound 119]
- Prompt Rat NHE3 pIC50 [1]: 8.70
- Prompt Human NHE3 pIC50 [2]: 7.80
- Urine Na % of control ([3]; dose 10 mg/kg): 43%
- Fecal Form Score average ([4]; dose 10 mg/kg): 1
- Urine P % of control ([5]; dose 10 mg/kg): 52%

SMILES: CN1Cc2c(Cl)cc(Cl)cc2[C@H](c2cccc(S(=O)(=O)NCCOCCOCCNC(=O)CCC(CCC(=O)NCCOCCOCCNS(=O)(=O)c3cccc([C@@H]4CN(C)Cc5c(Cl)cc(Cl)cc54)c3)(CCC(=O)NCCOCCOCCNS(=O)(=O)c3cccc([C@@H]4CN(C)Cc5c(Cl)cc(Cl)cc54)c3)NS(C)(=O)=O)c2)C1 [compound 122]
- Prompt Rat NHE3 pIC50 [1]: 6.20
- Prompt Human NHE3 pIC50 [2]: 6.80
- Urine Na % of control ([3]; dose 3 mg/kg): 30%
- Fecal Form Score average ([4]; dose 3 mg/kg): 2
- Urine P % of control ([5]; dose 3 mg/kg): 87%

SMILES: CN1Cc2c(Cl)cc(Cl)cc2[C@H](c2cccc(S(=O)(=O)NCCOCCOCCNC(=O)CCC(CCC(=O)NCCOCCOCCNS(=O)(=O)c3cccc([C@@H]4CN(C)Cc5c(Cl)cc(Cl)cc54)c3)(CCC(=O)NCCOCCOCCNS(=O)(=O)c3cccc([C@@H]4CN(C)Cc5c(Cl)cc(Cl)cc54)c3)NC(=O)CCC(=O)O)c2)C1 [compound 123]
- Prompt Rat NHE3 pIC50 [1]: 7.50
- Prompt Human NHE3 pIC50 [2]: 7.80
- Urine Na % of control ([3]; dose 1 mg/kg): 49%
- Urine Na % of control ([3]; dose 3 mg/kg): 12%
- Fecal Form Score average ([4]; dose 1 mg/kg): 1
- Fecal Form Score average ([4]; dose 3 mg/kg): 3
- Urine P % of control ([5]; dose 1 mg/kg): 124%
- Urine P % of control ([5]; dose 3 mg/kg): 88%
